# Data: US12661364B2, “Remedy for hair growth enhancing” (GURUS BIOPHARM INC., priority 2019, dated 2026)
# How the values were obtained:
# [1] = Stability of the cosmetic composition during accelerated storage at room temperature (HPLC content of the combination's components); type: physicochemical; conditions: for Stability / content in the cosmetic composition during accelerated storage (in words): room temperature, 20 degrees above the recommended +4 to +8° C.; for Prostaglandin F2 content, % (as % to the initial one): +25-27° C., measurement error 5%
# Protocol: The cosmetic composition for stimulation of hair growth (example of composition 1 according to the invention, see above) was held at +25-27° C. for 2 months. Samples were taken every week and analyzed for the content of the components of the combination by HPLC. To prepare a sample for analysis, 1 g of gel was taken from the cosmetic composition into a round-bottom glass centrifuge tube and 2 g of distilled ethyl acetate were added. The mixture was shaken on a Multi-Vortex V32 until the liquids were completely mixed for 3 min. The resulting suspension was centrifuged for 5 min at 6000 rpm for complete separation of the layers. The upper layer (ethyl acetate layer) was carefully removed with a glass pipette and transferred to a conical-bottom flask (V25 mL). Another 2 g of distilled ethyl acetate were added to the solution remaining in the test tube, and the extraction procedure was repeated once again. The upper layer (ethyl acetate layer) was carefully removed with a glass pipette and added to the previously collected solution. The organic layer was evaporated on a rotary evaporator and dried in an oil pump vacuum. The residue was dissolved in ethanol to obtain a solution with an ethanol concentration of 26 mg/100 μL. The extract was analyzed by microcolumn reversed-phase HPLC in an acetonitrile-water gradient system (linear gradient, 5→100% acetonitrile). The components of the combination of the invention were identified by comparison with reference standards. The quantity of each component was estimated by the signal area in the chromatogram.
# [2] = test system: scalp hair growth; conditions: 0.1% latanoprost applied to the scalp, after 24 weeks; cited from earlier work
smiles,measurement,setting,value
"CCCCC[C@H](O)/C=C/[C@H]1[C@H](O)CC(=O)[C@@H]1C/C=C\CCCC(=O)OC(CO[N+](=O)[O-])CO[N+](=O)[O-] [(Z)-1,3-bis(nitroxy)propanyl-2-7-((1R,2R,3R)-3-hydroxy-2-((S,E)-3-hydroxyoctene-1-yl-1)-5-oxocyclopentenyl)-5-heptenoate]",Stability / content in the cosmetic composition during accelerated storage (in words),[1],decreases over time
"CCCCC[C@H](O)/C=C/[C@H]1[C@H](O)CC(=O)[C@@H]1CCCCCCC(=O)OC(CO[N+](=O)[O-])CO[N+](=O)[O-] [E1, (Z)-1,3-bis(nitroxy)propan-2-yl-7-((1R,2R,3R)-3-hydroxy-2-((S,E)-3-hydroxyoct-1-en-1-yl)-5-xocyclopentyl)heptanoate]",Stability / content in the cosmetic composition during accelerated storage (in words),[1],decreases over time
CC(C)OC(=O)CCC/C=C\C[C@@H]1[C@@H](CC[C@@H](O)CCc2ccccc2)[C@H](O)C[C@@H]1O [latanoprost],Hair density (terminal and vellus hair),[2],significant increase in hair density
CCCCC[C@H](O)/C=C/[C@@H]1[C@@H](C/C=C\CCCC(=O)N[C@H](CO)C(=O)OC(C)C)[C@@H](O)C[C@H]1O [modified prostaglandin F2],"Prostaglandin F2 content, % (as % to the initial one)","[1]; hold time 0 weeks, cosmetic composition for stimulation of hair growth",100%
same,"Prostaglandin F2 content, % (as % to the initial one)",[1]; hold time 1 week,100%
same,"Prostaglandin F2 content, % (as % to the initial one)",[1]; hold time 2 weeks,100%
same,"Prostaglandin F2 content, % (as % to the initial one)",[1]; hold time 3 weeks,99%
same,"Prostaglandin F2 content, % (as % to the initial one)",[1]; hold time 4 weeks,99%
same,"Prostaglandin F2 content, % (as % to the initial one)",[1]; hold time 5 weeks,98%
same,"Prostaglandin F2 content, % (as % to the initial one)",[1]; hold time 6 weeks,98%
same,Stability / content in the cosmetic composition during accelerated storage (in words),[1],decreases very slowly
